Reference: US20040235794A1, “Remedies for respiratory diseases comprising sphingosine-1-phosphate receptor controller” (priority 2001, published 2004)
Values belong to the compound of their own block, whether it stands above or below them.

Columns and labels:
[1] = target: T1, EDG-3 (Homo sapiens, UniProt Q99500); test: Antagonistic activity for EDG-3 (S1P-induced intracellular calcium, CHO cells); format: cell-based; conditions: CHO cells expressing EDG-3, S1P 100 nM
T1 construct: expressed in transfected cells; host or cells: CHO inferred from 'method as in EDG-5'
T1 sequence (Q99500 whole entry): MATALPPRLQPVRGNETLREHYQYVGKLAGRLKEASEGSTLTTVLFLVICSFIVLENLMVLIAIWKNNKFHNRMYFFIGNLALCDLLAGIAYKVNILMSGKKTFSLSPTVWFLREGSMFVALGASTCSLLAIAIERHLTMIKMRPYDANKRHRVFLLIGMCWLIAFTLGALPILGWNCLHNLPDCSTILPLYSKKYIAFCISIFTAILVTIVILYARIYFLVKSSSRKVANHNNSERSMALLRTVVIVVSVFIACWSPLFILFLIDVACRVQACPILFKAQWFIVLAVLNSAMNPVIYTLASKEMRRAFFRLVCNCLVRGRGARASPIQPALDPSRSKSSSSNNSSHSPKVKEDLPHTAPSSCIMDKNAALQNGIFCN

[2] = tested on: anesthetized guinea pig; test: Inhibition of S1P-induced increase of airway resistance of anesthetized guinea pig in vivo; conditions: S1P 0.1 mg/mL inhaled; compound intravenously injected after increase of airway resistance
Experimental: The measurement of guinea pig airway resistance was carried out by the modified Konzett and Rossler method (Naunyn-Schmied. Arch. Exp. Path. Pharmak. 195, 71- ). Male Hartley guinea pigs (5 to 7 weeks-old, 300 to 500 g body weight in use) were anesthetized by pentobarbital (50 mg/kg intraabdominal dosage), and fixed at dorsal position. Then, trachea and jugular were cannulated. Airway was managed by a respirator (5 mL/stroke, 60 strokes/min) and air road was diverged with a T-tube and connected to broncho-spasm-transducer and airway resistance was measured. To guinea pigs, gallamine (1 mg/kg, i.v.) was administered and immobilized. S1P was vaporized and inhaled with supersonic wave type nebulizer for five minutes (Jpn. J. Pharm. 50, 445-466 (1989)). S1P (0.1 mg/mL) was inhaled to the anesthetized guinea pig, and airway resistance was measured. After a increase of strong airway resistance was recognized, compound 1 was intravenously injected.

[3] = target: T2, human EDG-5 (Homo sapiens, UniProt O95136); test: Antagonistic activity for EDG-5 (S1P-induced intracellular calcium, CHO cells); format: cell-based; conditions: CHO cells expressing human EDG-5, S1P 100 nM
T2 construct: expressed in transfected cells; host or cells: CHO cells
T2 sequence (O95136 whole entry): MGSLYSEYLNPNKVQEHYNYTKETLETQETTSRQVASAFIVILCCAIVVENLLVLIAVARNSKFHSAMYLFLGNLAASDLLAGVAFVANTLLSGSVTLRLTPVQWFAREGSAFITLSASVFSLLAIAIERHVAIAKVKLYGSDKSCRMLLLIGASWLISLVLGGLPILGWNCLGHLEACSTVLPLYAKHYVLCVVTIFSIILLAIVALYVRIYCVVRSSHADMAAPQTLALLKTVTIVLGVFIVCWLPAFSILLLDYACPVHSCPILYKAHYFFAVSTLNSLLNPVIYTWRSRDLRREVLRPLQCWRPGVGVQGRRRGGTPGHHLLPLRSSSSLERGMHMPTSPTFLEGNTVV
Experimental: Chinese hamster ovary (CHO) cells which expressed excessively human EDG-5 gene were cultured using a Ham's F12 medium (GIBCO BRL) containing 10% FBS (fetal bovine serum), penicillin/streptomycin, and blasticidin (5 μg/ml). Cultured cells were incubated in a Fura2 (5 μM) -AM solution [Ham's F12 medium containing FBS (10%), HEPES buffer (20 mM, pH7.4), and probenecid (2.5 mM)] at 37° C. for 60 minutes. Then washed once with a Hank's solution (2.5 mM) containing probenecid and immersed into the same solution. A plate was set on a fluorescent drug screening system, and measured for 30 seconds with no stimulation, a solution of a compound (dimethyl sulfoxide solution of 1 nM to 10 μM at the final concentration) to be tested was added. After lapse of 5 minutes, S1P (final concentration: 100 nM) was added, the intracellular calcium ion concentration before and after the addition was measured every 3 seconds (excitation wave length: 340 nm and 380 nm; fluorescent wave length: 500 nm). […]

[4] = tested on: human airway smooth muscle cells; test: Cell toxicity assessment using released LDH; format: cell-based; conditions: released LDH as indicator
[5] = tested on: isolated trachea of guinea pig; test: Constriction of isolated trachea of guinea pig (magnus tube)
Experimental: The trachea of euthanized male Hartley ginea pig was removed and immersed quickly in Krebs-Henseleit solution (112 mmol/L sodium chloride, 5.9 mmol/L potassium chloride, 2.0 mmol/L calcium chloride, 1.2 mmol/L magnesium chloride, 1.2 mmol/L monobasic sodium phosphate, 25.0 mmol/L sodium hydrogen carbonate NaHCO3, 11.5 mmol/L glucose, 4° C.). A removed tissue was hooked as helical sample in magnus tube (volume: 10 mL) filled with Krebs-Henseleit solution (37±1° C., [aerated with 95% O2+5% CO2]). After stabilizing for 60 minutes in tensioned condition with 1 g, contraction was measured by recorder from force displacement transducer via distortion amplifier. The contraction of control was obtained by high concentration solution of potassium chloride (sodium chloride in Krebs-Henseleit solution was all exchanged to potassium chloride), or by stimulation with leukotriene D4 (LTD4) or histamine. After contraction by S1P, EDG-5 antagonist was added. Washing process of a specimen was repeated just in time, after hooked in magnus tube.

[6] = target: T3, human EDG-1 (Homo sapiens, UniProt P21453); test: Antagonistic activity for EDG-1 (S1P-induced intracellular calcium, CHO cells); format: cell-based; conditions: CHO cells expressing human EDG-1, S1P 100 nM
T3 construct: expressed in transfected cells; host or cells: CHO inferred from 'method as in EDG-5'; the EDG-1 sentence says only 'cells'
T3 sequence (P21453 whole entry): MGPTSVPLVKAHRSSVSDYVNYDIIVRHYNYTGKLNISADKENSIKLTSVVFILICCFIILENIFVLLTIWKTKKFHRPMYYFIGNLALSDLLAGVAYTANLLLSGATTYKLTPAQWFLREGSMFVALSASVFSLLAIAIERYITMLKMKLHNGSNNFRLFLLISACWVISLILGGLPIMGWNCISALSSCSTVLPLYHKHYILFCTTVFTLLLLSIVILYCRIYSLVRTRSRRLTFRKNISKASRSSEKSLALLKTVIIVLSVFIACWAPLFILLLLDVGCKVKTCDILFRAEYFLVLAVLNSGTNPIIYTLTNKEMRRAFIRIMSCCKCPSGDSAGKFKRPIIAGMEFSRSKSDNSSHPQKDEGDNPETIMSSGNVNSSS

[7] = tested on: Normal human airway smooth muscle cells; test: DNA synthesis (BrdU incorporation) of human airway smooth muscle cells induced by S1P; format: cell-based
Experimental: Normal human airway smooth muscle cells (BMSC; BioWhittaker) were cultured using MEM-A medium (GIBCO) containing 10% FBS (fetal calf serum), gentamicin (50 μg/mL), amphotericin B (50 ng/mL), and human bFGF, human insulin for 24 hours and deoxybromouridine (BrdU) was added.
Normal human airway smooth muscle cells (BMSC; BioWhittaker) were plated in 96 well plate using MEM-α medium containing human insulin at density of 1×10^4 cells/well. After 24 hour incubation, wash 2 times with Hanks solution, and serum-free medium (MEM-α/gentamicin (50 μg/mL), amphotericin B (50 ng/mL)) was added and incubated for 24 hours. S1P was added at the final concentration of 0.03 μM to 10 μM, deoxybromouridine (BrdU) was added at the same time, and incubated for 6 hours, and then the activity of BrdU incorporation was measured. As control, equal volume of physiological salt solution, which is vehicle of S1P, was added.
Cells were treated with BrdU, and culture supernatant was discarded. 150 μL of Cell fixation·DNA denaturation buffer was added to each well and incubated for 30 minutes. Cell fixation·DNA denaturation buffer was removed and blocking buffer (150 μL) was added. […] After 15 minutes, 25 μL of 2N sulfuric acid was added and absorbance at 450 nm was measured. […]

[8] = tested on: anesthetized guinea pig; test: Effect of pre-treatment on increase of airway resistance induced by S1P; format: in vivo; conditions: pretreatment 100 μg/mL, i.v.
Experimental: The measurement of guinea pig airway resistance was carried out by the modified Konzett and Rossler method (Naunyn-Schmied. Arch. Exp. Path. Pharmak. 195, 71- ). Male Hartley guinea pigs (5 to 7 weeks-old, 300 to 500 g body weight in use) were anesthetized by pentobarbital (50 mg/kg intraabdominal dosage), and fixed at dorsal position. Then, trachea and jugular were cannulated. Airway was managed by a respirator (5 mL/stroke, 60 strokes/min) and air road was diverged with a T-tube and connected to broncho-spasm-transducer and airway resistance was measured. To guinea pigs, gallamine (1 mg/kg, i.v.) was administered and immobilized. In this connection, acetylcholine was administered (30 μg/kg, i.v.) before inhalation of a compound in order to ascertain that that there was no considerable difference in sensitivity of transient airway constriction between individual animals, and then, animals which have coordinative sensitivity were used. […] Complete obstruction (total area) was calculated as area as follows; deduct the value of airway resistance at startup of S1P inhalation from the value of airway resistance that is obtained at the time of clamping the tube of tracheal cannula side, and obtained value is multiplied by 10 minutes (5 minutes for inhalation and 5 minutes for post-inhalation). […] S1P (0.01 to 1 mg/mL) was inhaled to anesthetized guinea pig and airway resistance was measured. […]

[9] = tested on: anesthetized guinea pig; test: Airway resistance of anesthetized guinea pig after inhalation (modified Konzett and Rossler method); format: in vivo; conditions: for increase of airway resistance: inhalation for five minutes, 0.01 to 1 mg/mL, S1P effect at 0.1 to 1 mg/mL
Experimental: The measurement of guinea pig airway resistance was carried out by the modified Konzett and Rossler method (Naunyn-Schmied. Arch. Exp. Path. Pharmak. 195, 71- ). Male Hartley guinea pigs (5 to 7 weeks-old, 300 to 500 g body weight in use) were anesthetized by pentobarbital (50 mg/kg intraabdominal dosage), and fixed at dorsal position. Then, trachea and jugular were cannulated. Airway was managed by a respirator (5 mL/stroke, 60 strokes/min) and air road was diverged with a T-tube and connected to broncho-spasm-transducer and airway resistance was measured. To guinea pigs, gallamine (1 mg/kg, i.v.) was administered and immobilized. In this connection, acetylcholine was administered (30 μg/kg, i.v.) before inhalation of a compound in order to ascertain that that there was no considerable difference in sensitivity of transient airway constriction between individual animals, and then, animals which have coordinative sensitivity were used. S1P (Alexis) was vaporized and inhaled with supersonic wave type nebulizer (Omron NE U-07) for five minutes (Jpn. J. Pharm. 50, 445-466 (1989)). Complete obstruction (total area) was calculated as area as follows; deduct the value of airway resistance at startup of S1P inhalation from the value of airway resistance that is obtained at the time of clamping the tube of tracheal cannula side, and obtained value is multiplied by 10 minutes (5 minutes for inhalation and 5 minutes for post-inhalation). […] S1P (0.01 to 1 mg/mL) was inhaled to anesthetized guinea pig and airway resistance was measured. The reference example was carried out using 10% meylon and sphingosine (Matreya, 0.01 to 1 mg/mL) with method described in example 1.

[10] = tested on: anesthetized guinea pig; test: Airway resistance of guinea pig after intravenous administration; format: in vivo; conditions: injected intravenously
Experimental: Male guinea pigs (Standard Hartley, 5 to 7 weeks-old, 300 to 500 g body weight in use) were anesthetized by pentobarbital (50 mg/kg intraabdominal dosage), and fixed at dorsal position. Then, trachea and jugular were cannulated. S1P was injected intravenously, and airway resistance was measured as described in Example 1.

IC50 [1]: > 10 µM
IC50 [3]: 0.01 µM
IC50 [6]: > 10 µM
SMILES: Cc1nn(C)c2nc(NNC(=O)Nc3c(Cl)cncc3Cl)cc(C(C)C)c12 [Compound 1, N-(1H-1,3-dimethyl-4-isopropylpyrazolo[3,4-b]pyridine-6-yl)amino-N′-(3,5-dichloropyridine-4-yl)urea]
inhibition of increase of airway resistance induced by S1P [2]: inhibited
LDH activity in medium [4]: did not enhancement LDH activity in medium
inhibition of constriction induced by S1P ([5]; added after contraction by S1P): inhibited constriction induced by S1P
antagonism of S1P-induced BrdU incorporation ([7]; compound 0.01 μM to 10 μM, S1P 3 μM, 6 hours): antagonized against S1P

SMILES: CC(C)(C)NCC(O)c1ccc(O)c(CO)c1 (stereo not shown) [salbutamol]
inhibition of increase of airway resistance induced by S1P [8]: inhibited only partially

SMILES: CCCCCCCCCCCCC/C=C/[C@@H](O)[C@@H](N)CO [sphingosine]
increase of airway resistance [9]: increase of airway resistance was not observed

SMILES: NCCc1c[nH]cn1 [histamine]
increase of airway resistance [10]: increase
increase of airway resistance [9]: increase of airway resistance

SMILES: CCCCCCCCCCCCC/C=C/[C@@H](O)[C@@H](N)COP(=O)(O)O [Compound S1P, (2S, 3R, 4E)-2-amino-3-hydroxyoctadeca-4-enyl-1 phosphate]
increase of airway resistance [10]: Increase of airway resistance was observed
increase of airway resistance compared with histamine [10]: slight compared with that of histamine
contraction of guinea pig trachea ([5]; S1P 10 μmol/L): very slow contraction
rate of contraction relative to other constricting drug (LTD4, histamine etc.) ([5]; S1P 10 μmol/L): 3 to 5 fold slower
time to plateau of contraction ([5]; S1P 10 μmol/L): 30 to 60 min
increasing effect on airway resistance compared with inhalation of histamine ([9]; inhalation 0.01 to 1 mg/mL, converted to number of moles): at the same level
increase of airway resistance [9]: strong increase of airway resistance was observed
DNA synthesis of human airway smooth muscle cells ([7]; S1P 0.03 μM to 10 μM, BrdU 6 hours): induces DNA synthesis
